The term EC50 denotes the concentration at which the effect is half-maximal.

Each structure is given as a SMILES string.

This experiment has as its target T1, CD80-CD28 interaction (Homo sapiens, UniProt P33681).
T1 sequence (P33681 35-242 limits assumed): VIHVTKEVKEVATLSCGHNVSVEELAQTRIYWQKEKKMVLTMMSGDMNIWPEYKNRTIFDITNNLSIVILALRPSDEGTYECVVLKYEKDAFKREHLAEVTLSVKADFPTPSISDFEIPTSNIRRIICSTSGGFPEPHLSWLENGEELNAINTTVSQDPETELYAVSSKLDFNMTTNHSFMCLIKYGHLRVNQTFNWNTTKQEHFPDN
The experiment can be described thus: Homogenous Time Resolved Fluorescence (HTRF) assay, cell free. It is filed as binding. The following applies: cell free HTRF assay; concentration series 100 μM-1.7 nM; 4 hours at room temperature; read-out: Activity (EC50 in the HTRF assay). In outline:
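Europium and APC labels were linked through antibodies to CD28 and CD80 fusion proteins. Compounds were tested at 100 μM-1.7 nM for 4 h at room temperature in 50 mM Tris-HCl, 150 mM NaCl pH7.8, 0.1% BSA. Emission read at 665 and 615 nm (excitation 340 nm); non-specific signal measured with C215 Fab in place of CD80; EC50 reported in bands.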
In general terms: In TR-FRET formats the signal depends on donor and acceptor labels being close together.
Consider `CCN(CC)CCNC(=O)c1ccc(-n2[nH]c3c(nnc4ccc(F)cc43)c2=O)cc1` [Example 326], for which the EC50 is less than 1 µM.

`CN1CCCC1CCNC(=O)c1ccc(-n2[nH]c3c(nnc4ccc(F)cc43)c2=O)cc1` (centres unmarked) [Example 327]: the EC50 is less than 1 µM.

For `O=C(NC1CCN(Cc2ccccc2)CC1)c1ccc(-n2[nH]c3c(nnc4ccc(F)cc43)c2=O)cc1` [Example 328], the EC50 is less than 1 µM.

As to `CCCCN(CCCC)CCCNC(=O)c1ccc(-n2[nH]c3c(nnc4ccc(F)cc43)c2=O)cc1` [Example 329], the EC50 is less than 1 µM.

Take `CCN(CC)CCCNC(=O)c1ccc(-n2[nH]c3c(nnc4ccc(F)cc43)c2=O)cc1` [Example 330]: the EC50 was less than 1 µM.

As to `O=C(NCCCN1CCCC1)c1ccc(-n2[nH]c3c(nnc4ccc(F)cc43)c2=O)cc1` [Example 331], the EC50 is less than 1 µM.

Turning to `CC1CCCCN1CCCNC(=O)c1ccc(-n2[nH]c3c(nnc4ccc(F)cc43)c2=O)cc1` (centres unmarked) [Example 332], the EC50 was less than 1 µM.

As for `CC=CCNC(=O)c1ccc(-n2[nH]c3c(nnc4c(F)cccc43)c2=O)cc1` [Example 333], the EC50 was less than 1 µM.

In the case of `O=C(CN1CCC(NC(=O)c2ccc(-n3[nH]c4c(nnc5c(F)cccc54)c3=O)cc2)CC1)c1ccccc1` [Example 334], the EC50 was less than 1 µM.

In the case of `CCOCCN1CCC(NC(=O)c2ccc(-n3[nH]c4c(nnc5c(F)cccc54)c3=O)cc2)CC1` [Example 335], the EC50 is less than 1 µM.

Turning to `O=C(NC1CCN(CCC2CCCCC2)CC1)c1ccc(-n2[nH]c3c(nnc4c(F)cccc43)c2=O)cc1` [Example 336], the concentration for a half-maximal effect (EC50) was less than 1 µM.

For the compound `CC(c1ccccc1)N1CCC(NC(=O)c2ccc(-n3[nH]c4c(nnc5c(F)cccc54)c3=O)cc2)CC1` (centres unmarked) [Example 337], the EC50 is less than 1 µM.

On to `O=C(NCCCCN1CCOCC1)c1ccc(-n2[nH]c3c(nnc4ccccc43)c2=O)cc1` [Example 338], for which the EC50 was less than 1 µM.

For the compound `O=C(NCCCCN1CCCCC1)c1ccc(-n2[nH]c3c(nnc4ccccc43)c2=O)cc1` [Example 339], the EC50 was less than 1 µM.

In the case of `C=C(C)CNC(=O)c1ccc(-n2[nH]c3c(nnc4c(F)cccc43)c2=O)cc1` [Example 340], the EC50 is less than 1 µM.

As for `CCCNCCNC(=O)c1ccc(-n2[nH]c3c(nnc4c(F)cccc43)c2=O)cc1` [Example 341], the EC50 is less than 1 µM.

In the case of `CCN(CC)CCNC(=O)c1ccc(-n2[nH]c3c(nnc4c(F)cccc43)c2=O)cc1` [Example 342], the EC50 is less than 1 µM.

Turning to `CN1CCCC1CCNC(=O)c1ccc(-n2[nH]c3c(nnc4c(F)cccc43)c2=O)cc1` (centres unmarked) [Example 343], the EC50 is less than 1 µM.

`CCCCNCCNC(=O)c1ccc(-n2[nH]c3c(nnc4c(F)cccc43)c2=O)cc1` [Example 344]: the EC50 is less than 1 µM.

Take `CCN(CC)CCCNC(=O)c1ccc(-n2[nH]c3c(nnc4c(F)cccc43)c2=O)cc1` [Example 346]: the EC50 was less than 1 µM.

Take `O=C(NCCNCc1ccccc1)c1ccc(-n2[nH]c3c(nnc4c(F)cccc43)c2=O)cc1` [Example 347]: the EC50 is less than 1 µM.

On to `CC(C)NCCCNC(=O)c1ccc(-n2[nH]c3c(nnc4c(F)cccc43)c2=O)cc1` [Example 348], for which the EC50 is less than 1 µM.

`NCCCCNC(=O)c1ccc(-n2[nH]c3c(nnc4c(F)cccc43)c2=O)cc1` [Example 351]: the EC50 is less than 1 µM.

For the compound `O=C(NCCCN1CCCC1)c1ccc(-n2[nH]c3c(nnc4c(F)cccc43)c2=O)cc1` [Example 352], the EC50 was less than 1 µM.

As for `CCCCOCCCNC(=O)c1ccc(-n2[nH]c3c(nnc4c(F)cccc43)c2=O)cc1` [Example 354], the EC50 was less than 1 µM.

For the compound `CNCCCNC(=O)c1ccc(-n2[nH]c3c(nnc4c(F)cccc43)c2=O)cc1` [Example 355], the EC50 was less than 1 µM.

For the compound `CNCCNC(=O)c1ccc(-n2[nH]c3c(nnc4c(F)cccc43)c2=O)cc1` [Example 356], the EC50 was less than 1 µM.

With `CCNCCNC(=O)c1ccc(-n2[nH]c3c(nnc4c(F)cccc43)c2=O)cc1` [Example 357], the EC50 was less than 1 µM.

Take `CC1CCCCN1CCCNC(=O)c1ccc(-n2[nH]c3c(nnc4c(F)cccc43)c2=O)cc1` (centres unmarked) [Example 358]: the EC50 is less than 1 µM.

Regarding `CC(Cc1c[nH]c2ccccc12)NC(=O)c1ccc(-n2[nH]c3c(nnc4c(F)cccc43)c2=O)cc1` (centres unmarked) [Example 359], the EC50 was less than 1 µM.

Turning to `O=C(NCCc1ccccc1Cl)c1ccc(-n2[nH]c3c(nnc4c(F)cccc43)c2=O)cc1` [Example 360], the EC50 was in the range of 1 to 10 µM.

Take `Cc1ccc(CCNC(=O)c2ccc(-n3[nH]c4c(nnc5c(F)cccc54)c3=O)cc2)cc1` [Example 362]: the EC50 is 1 to 10 µM.

Turning to `O=C(NCCc1ccc(Cl)cc1)c1ccc(-n2[nH]c3c(nnc4c(F)cccc43)c2=O)cc1` [Example 363], the EC50 is 1 to 10 µM.

For the compound `O=C(NCCc1cccc(Cl)c1)c1ccc(-n2[nH]c3c(nnc4c(F)cccc43)c2=O)cc1` [Example 364], the EC50 is 1 to 10 µM.

For `O=C(NCCc1cccc(Br)c1)c1ccc(-n2[nH]c3c(nnc4c(F)cccc43)c2=O)cc1` [Example 365], the EC50 was more than 10 µM.

Regarding `Cc1ccccc1CCNC(=O)c1ccc(-n2[nH]c3c(nnc4c(F)cccc43)c2=O)cc1` [Example 366], the EC50 is 1 to 10 µM.

`O=C(NCCc1ccccc1Br)c1ccc(-n2[nH]c3c(nnc4c(F)cccc43)c2=O)cc1` [Example 368]: the EC50 was in the range of 1 to 10 µM.

Consider `O=C(NCCc1c(F)cccc1Cl)c1ccc(-n2[nH]c3c(nnc4c(F)cccc43)c2=O)cc1` [Example 369], for which the concentration for a half-maximal effect (EC50) lay within 1 to 10 µM.

As to `O=C(NCCc1ccc(Cl)cc1Cl)c1ccc(-n2[nH]c3c(nnc4c(F)cccc43)c2=O)cc1` [Example 370], the EC50 is 1 to 10 µM.

In the case of `O=C(NCCc1c(Cl)cccc1Cl)c1ccc(-n2[nH]c3c(nnc4c(F)cccc43)c2=O)cc1` [Example 371], the EC50 was 1 to 10 µM.

As to `O=C(NCCc1ccc(Cl)c(Cl)c1)c1ccc(-n2[nH]c3c(nnc4c(F)cccc43)c2=O)cc1` [Example 372], the EC50 is 1 to 10 µM.

For `O=C(NCCc1cccc(F)c1)c1ccc(-n2[nH]c3c(nnc4c(F)cccc43)c2=O)cc1` [Example 373], the 50% effective concentration (EC50) lay within 1 to 10 µM.

In the case of `CC1(C)CC(NC(=O)c2ccc(-n3[nH]c4c(nnc5c(F)cccc54)c3=O)cc2)CC(C)(C)N1` [Example 374], the concentration for a half-maximal effect (EC50) was less than 1 µM.

With `CC(C)(C)NC(=O)c1ccc(-n2[nH]c3c(nnc4c(F)cccc43)c2=O)cc1` [Example 375], the half-maximal effective concentration (EC50) is less than 1 µM.

For the compound `C=CCNC(=O)c1ccc(-n2[nH]c3c(nnc4c(F)cccc43)c2=O)cc1` [Example 377], the EC50 is less than 1 µM.

Regarding `CC(C)(C)c1ccc(CN2CCC(NC(=O)c3ccc(-n4[nH]c5c(nnc6c(F)cccc65)c4=O)cc3)CC2)cc1` [Example 378], the EC50 is less than 1 µM.

On to `CS(=O)(=O)c1ccc(CN2CCC(NC(=O)c3ccc(-n4[nH]c5c(nnc6c(F)cccc65)c4=O)cc3)CC2)cc1` [Example 380], for which the EC50 was less than 1 µM.

As for `CCCCNCCNC(=O)c1ccc(-n2[nH]c3c(nnc4ccc(F)cc43)c2=O)cc1` [Example 384], the EC50 was less than 1 µM.

Turning to `CC(C)NCCCNC(=O)c1ccc(-n2[nH]c3c(nnc4ccc(F)cc43)c2=O)cc1` [Example 385], the EC50 was less than 1 µM.

Take `O=C(NCCCCO)c1ccc(-n2[nH]c3c(nnc4ccc(F)cc43)c2=O)cc1` [Example 386]: the EC50 is less than 1 µM.

Consider `CN(C)CCCNC(=O)c1ccc(-n2[nH]c3c(nnc4cccc(F)c43)c2=O)cc1` [Example 387], for which the EC50 was less than 1 µM.

With `O=C(NCCCCN1CCCC1)c1ccc(-n2[nH]c3c(nnc4cccc(F)c43)c2=O)cc1` [Example 388], the EC50 was less than 1 µM.

`O=C(NCCCNC1CCCCC1)c1ccc(-n2[nH]c3c(nnc4cccc(F)c43)c2=O)cc1` [Example 389]: the concentration giving a half-maximal response (EC50) is less than 1 µM.

Take `CN1C(C)(C)CC(NC(=O)c2ccc(-n3[nH]c4c(nnc5cccc(F)c54)c3=O)cc2)CC1(C)C` [Example 390]: the EC50 was less than 1 µM.

In the case of `CN1CCC(NC(=O)c2ccc(-n3[nH]c4c(nnc5cccc(F)c54)c3=O)cc2)CC1` [Example 391], the EC50 is less than 1 µM.

Take `CCN(CC)CCCNC(=O)c1ccc(-n2[nH]c3c(nnc4cccc(F)c43)c2=O)cc1` [Example 392]: the EC50 is less than 1 µM.

With `O=C(NCCCN1CCCC1)c1ccc(-n2[nH]c3c(nnc4cccc(F)c43)c2=O)cc1` [Example 393], the EC50 is less than 1 µM.

For `CC1CCCCN1CCCNC(=O)c1ccc(-n2[nH]c3c(nnc4cccc(F)c43)c2=O)cc1` (centres unmarked) [Example 394], the EC50 was less than 1 µM.

As for `CC(C)NCCCNC(=O)c1ccc(-n2[nH]c3c(nnc4cccc(F)c43)c2=O)cc1` [Example 395], the EC50 is less than 1 µM.

For `CNCCCNC(=O)c1ccc(-n2[nH]c3c(nnc4cccc(F)c43)c2=O)cc1` [Example 396], the EC50 was less than 1 µM.

Take `O=C(NCCCN1CCOCC1)c1ccc(-n2[nH]c3c(nnc4cccc(F)c43)c2=O)cc1` [Example 397]: the EC50 is less than 1 µM.

On to `CCCCN(CCCC)CCCNC(=O)c1ccc(-n2[nH]c3c(nnc4cccc(F)c43)c2=O)cc1` [Example 398], for which the EC50 was less than 1 µM.

Consider `O=C(NC1CCN(Cc2ccccc2)C1)c1ccc(-n2[nH]c3c(nnc4cccc(F)c43)c2=O)cc1` (centres unmarked) [Example 399], for which the EC50 was less than 1 µM.

For the compound `CC(C)(C)NC(=O)c1ccc(-n2[nH]c3c(nnc4cccc(F)c43)c2=O)cc1` [Example 400], the EC50 was less than 1 µM.

With `O=C(NC1CN2CCC1CC2)c1ccc(-n2[nH]c3c(nnc4cccc(F)c43)c2=O)cc1` (centres unmarked) [Example 401], the EC50 was less than 1 µM.

(Values after US8309552B2, “Immunomodulating heterocyclic compounds” (Medigene AG, priority 2003, dated 2012).)
